# Paper PMC5218480 (PLoS ONE, 2017)
# Tested on: MV-4-11 cells
# Test: Gene expression microarray analysis (Affymetrix PrimeView) and GSEA
# Format: cell-based, human
# Parameters: RFU PODN (11730768_x_at) / Fold change /veh PODN (11730768_x_at) / RFU LINC00158 (11744669_a_at) / Fold change /veh LINC00158 (11744669_a_at) / RFU DUSP10 (11751237_a_at) / Fold change /veh DUSP10 (11751237_a_at) / RFU ID3 (11757404_x_at) / Fold change /veh ID3 (11757404_x_at) / RFU PLEKHG5 (11737974_s_at) / Fold change /veh PLEKHG5 (11737974_s_at) / RFU LRRC4B (11730491_at) / Fold change /veh LRRC4B (11730491_at) / RFU GIMAP4 (11747438_a_at) / Fold change /veh GIMAP4 (11747438_a_at) / RFU KRT8 (11758183_x_at) / Fold change /veh KRT8 (11758183_x_at) / RFU CNN1 (11734310_a_at) / Fold change /veh CNN1 (11734310_a_at) / RFU VPS37D (11726825_at) / Fold change /veh VPS37D (11726825_at) / RFU C10orf10 (11716522_x_at) / Fold change /veh C10orf10 (11716522_x_at) / RFU KIR2DL2 /// KIR2DL4 /// KIR2DL5A /// KIR2DL5B /// KIR2DS1 /// KIR2DS2 /// KIR2DS3 /// KIR2DS4 /// KIR3DL3 /// KIR3DL3 /// KIR3DS1 (11738374_at) / Fold change /veh KIR2DL2 /// KIR2DL4 /// KIR2DL5A /// KIR2DL5B /// KIR2DS1 /// KIR2DS2 /// KIR2DS3 /// KIR2DS4 /// KIR3DL3 /// KIR3DL3 /// KIR3DS1 (11738374_at) / RFU C1QL1 (11718748_at) / Fold change /veh C1QL1 (11718748_at) / RFU TMPRSS4 (11747572_a_at) / Fold change /veh TMPRSS4 (11747572_a_at) / RFU HAMP (11756126_x_at) / Fold change /veh HAMP (11756126_x_at) / RFU RNFT2 (11725882_a_at) / Fold change /veh RNFT2 (11725882_a_at) / RFU NR4A2 (11747474_a_at) / Fold change /veh NR4A2 (11747474_a_at) / RFU ABCC12 (11746883_a_at) / Fold change /veh ABCC12 (11746883_a_at) / RFU TMEM136 (11760407_x_at) / Fold change /veh TMEM136 (11760407_x_at) / RFU CLDN22 /// WWC2 (11732394_at) / Fold change /veh CLDN22 /// WWC2 (11732394_at) / RFU HLA-DPB1 (11760878_x_at) / Fold change /veh HLA-DPB1 (11760878_x_at) / RFU SPINT1 (11716480_a_at) / Fold change /veh SPINT1 (11716480_a_at) / RFU GAP43 (11754022_s_at) / Fold change /veh GAP43 (11754022_s_at) / RFU A4GNT (11735810_at) / Fold change /veh A4GNT (11735810_at) / RFU PRB3 (11715151_x_at) / Fold change /veh PRB3 (11715151_x_at) / RFU TUBB4B (11761932_at) / Fold change /veh TUBB4B (11761932_at) / RFU CAPN14 (11732068_a_at) / Fold change /veh CAPN14 (11732068_a_at) / RFU TMCC2 (11721928_a_at) / Fold change /veh TMCC2 (11721928_a_at) / RFU IRGQ (11745062_a_at) / Fold change /veh IRGQ (11745062_a_at) / RFU FAM174B (11720279_a_at) / Fold change /veh FAM174B (11720279_a_at) / RFU TMPRSS4 (11748680_a_at) / Fold change /veh TMPRSS4 (11748680_a_at) / RFU FAM212B (11763350_a_at) / Fold change /veh FAM212B (11763350_a_at) / RFU PLEKHG5 (11743358_a_at) / Fold change /veh PLEKHG5 (11743358_a_at) / RFU ZSCAN30 (11745921_a_at) / Fold change /veh ZSCAN30 (11745921_a_at) / RFU CMKLR1 (11741424_a_at) / Fold change /veh CMKLR1 (11741424_a_at) / RFU LOC101060620 /// MAPK8IP1 (11723275_at) / Fold change /veh LOC101060620 /// MAPK8IP1 (11723275_at) / RFU SPTSSB (11747773_x_at) / Fold change /veh SPTSSB (11747773_x_at) / RFU PRSS12 (11739890_at) / Fold change /veh PRSS12 (11739890_at) / RFU BIN1 (11741810_x_at) / Fold change /veh BIN1 (11741810_x_at) / RFU WNT11 (11732464_a_at) / Fold change /veh WNT11 (11732464_a_at) / RFU C10orf10 (11716521_a_at) / Fold change /veh C10orf10 (11716521_a_at) / RFU C5orf56 (11738089_at) / Fold change /veh C5orf56 (11738089_at) / RFU CYB561 (11721691_x_at) / Fold change /veh CYB561 (11721691_x_at) / RFU ANKRD19P (11752326_a_at) / Fold change /veh ANKRD19P (11752326_a_at) / RFU OR2T12 /// OR2T33 /// OR2T8 (11738714_s_at) / Fold change /veh OR2T12 /// OR2T33 /// OR2T8 (11738714_s_at) / RFU VCAN (11748164_a_at) / Fold change /veh VCAN (11748164_a_at) / RFU JSRP1 (11732532_at) / Fold change /veh JSRP1 (11732532_at) / RFU KRTAP10-11 (11738290_x_at) / Fold change /veh KRTAP10-11 (11738290_x_at) / RFU MYO3A (11730013_a_at) / Fold change /veh MYO3A (11730013_a_at) / RFU EBF3 (11725865_a_at) / Fold change /veh EBF3 (11725865_a_at) / RFU CAMK2N1 (11719241_x_at) / Fold change /veh CAMK2N1 (11719241_x_at) / RFU C5orf56 (11738088_a_at) / Fold change /veh C5orf56 (11738088_a_at) / RFU OLFML3 (11715873_a_at) / Fold change /veh OLFML3 (11715873_a_at) / RFU LOC100653217 /// NTM (11731650_a_at) / Fold change /veh LOC100653217 /// NTM (11731650_a_at) / RFU MAPK11 (11762145_a_at) / Fold change /veh MAPK11 (11762145_a_at) / RFU FIZ1 (11724087_x_at) / Fold change /veh FIZ1 (11724087_x_at) / RFU OASL (11726364_x_at) / Fold change /veh OASL (11726364_x_at) / RFU SOX15 (11748057_x_at) / Fold change /veh SOX15 (11748057_x_at) / RFU CD79A (11719716_a_at) / Fold change /veh CD79A (11719716_a_at) / RFU HIST1H1D (11736915_at) / Fold change /veh HIST1H1D (11736915_at) / RFU CASKIN2 (11723855_a_at) / Fold change /veh CASKIN2 (11723855_a_at) / RFU LOC730098 (11760151_x_at) / Fold change /veh LOC730098 (11760151_x_at) / RFU OR4N2 (11742367_at) / Fold change /veh OR4N2 (11742367_at) / RFU PRRT2 (11749266_a_at) / Fold change /veh PRRT2 (11749266_a_at) / RFU SNX32 (11753110_a_at) / Fold change /veh SNX32 (11753110_a_at) / RFU CDHR5 (11726645_a_at) / Fold change /veh CDHR5 (11726645_a_at) / RFU RCAN1 (11760418_a_at) / Fold change /veh RCAN1 (11760418_a_at) / RFU FAM167A (11723789_a_at) / Fold change /veh FAM167A (11723789_a_at) / RFU FAM26E (11764081_at) / Fold change /veh FAM26E (11764081_at) / RFU ISYNA1 (11749810_s_at) / Fold change /veh ISYNA1 (11749810_s_at) / RFU ACY1 (11761880_at) / Fold change /veh ACY1 (11761880_at) / RFU 11764098_at / Fold change /veh 11764098_at / RFU SAMD14 (11745864_x_at) / Fold change /veh SAMD14 (11745864_x_at) / RFU NPB (11741838_a_at) / Fold change /veh NPB (11741838_a_at) / RFU TMPRSS6 (11731388_a_at) / Fold change /veh TMPRSS6 (11731388_a_at) / RFU KRTAP10-2 (11738614_at) / Fold change /veh KRTAP10-2 (11738614_at) / RFU ARHGAP8 /// PRR5-ARHGAP8 (11727945_x_at) / Fold change /veh ARHGAP8 /// PRR5-ARHGAP8 (11727945_x_at) / RFU KRTAP5-7 /// NADSYN1 (11734609_at) / Fold change /veh KRTAP5-7 /// NADSYN1 (11734609_at) / RFU RASL12 (11751679_a_at) / Fold change /veh RASL12 (11751679_a_at) / RFU CDKN2B (11736163_a_at) / Fold change /veh CDKN2B (11736163_a_at) / RFU PRF1 (11729649_at) / Fold change /veh PRF1 (11729649_at) / RFU, ZNF638 /// ZNF638-IT1 / Fold change vs veh, ZNF638 /// ZNF638-IT1 / RFU, PANK3 / Fold change vs veh, PANK3 / RFU, SH3YL1 / Fold change vs veh, SH3YL1 / RFU, ZEB2 / Fold change vs veh, ZEB2 / RFU, NRIP1 / Fold change vs veh, NRIP1 / RFU, PTTG1IP / Fold change vs veh, PTTG1IP / RFU, CAPN2 / Fold change vs veh, CAPN2 / RFU, MED14 / Fold change vs veh, MED14 / RFU, SNORA58 / Fold change vs veh, SNORA58 / RFU, C1orf63 / Fold change vs veh, C1orf63 / RFU, LRRFIP1 / Fold change vs veh, LRRFIP1 / RFU, NDUFAF7 / Fold change vs veh, NDUFAF7 / RFU, SLC12A2 / Fold change vs veh, SLC12A2 / RFU, IBTK / Fold change vs veh, IBTK / RFU, ESF1 / Fold change vs veh, ESF1 / Fold change vs veh, TMEM50B / RFU, TAOK1 / Fold change vs veh, TAOK1 / RFU, ACBD3 / Fold change vs veh, ACBD3 / RFU, TMA16 / Fold change vs veh, TMA16 / RFU, RWDD3 / Fold change vs veh, RWDD3 / RFU, BCAT1 / Fold change vs veh, BCAT1 / RFU, EDEM3 / Fold change vs veh, EDEM3 / RFU, TMEM33 / Fold change vs veh, TMEM33 / RFU, WDR75 / Fold change vs veh, WDR75 / RFU, AHCTF1 / Fold change vs veh, AHCTF1 / RFU, TFRC / Fold change vs veh, TFRC / RFU, ZDHHC17 / Fold change vs veh, ZDHHC17 / RFU, NOM1 / Fold change vs veh, NOM1 / RFU, ARL8B / Fold change vs veh, ARL8B / RFU, ZBTB11 / Fold change vs veh, ZBTB11 / RFU, TAMM41 / Fold change vs veh, TAMM41 / RFU, KIAA1704 /// LOC100996395 / Fold change vs veh, KIAA1704 /// LOC100996395 / RFU, ING1 / Fold change vs veh, ING1 / RFU, TRMT61B / Fold change vs veh, TRMT61B / RFU, FUBP3 / Fold change vs veh, FUBP3 / RFU, TP53 / Fold change vs veh, TP53 / RFU, TNKS2 / Fold change vs veh, TNKS2 / RFU, ZFP14 / Fold change vs veh, ZFP14 / RFU, ACTR2 / Fold change vs veh, ACTR2 / RFU, PPP3R1 / Fold change vs veh, PPP3R1 / RFU, PIK3R1 / Fold change vs veh, PIK3R1 / RFU, HNRNPA1 / Fold change vs veh, HNRNPA1 / RFU, RNF170 / Fold change vs veh, RNF170 / RFU, ZNF28 / Fold change vs veh, ZNF28 / RFU, RNGTT / Fold change vs veh, RNGTT / RFU, OGT / Fold change vs veh, OGT / RFU, BRD1 / Fold change vs veh, BRD1 / RFU, MARS / Fold change vs veh, MARS / RFU, ZNF655 / Fold change vs veh, ZNF655 / RFU, FAHD1 / Fold change vs veh, FAHD1 / RFU, BDP1 / Fold change vs veh, BDP1 / RFU, LRRCC1 / Fold change vs veh, LRRCC1 / RFU, ARID1A / Fold change vs veh, ARID1A / RFU, ZNF146 / Fold change vs veh, ZNF146 / RFU, ZNF330 / Fold change vs veh, ZNF330 / RFU, GPN3 / Fold change vs veh, GPN3 / RFU, C9orf123 / Fold change vs veh, C9orf123 / RFU, N4BP2L2 / Fold change vs veh, N4BP2L2 / RFU, ARFIP1 / Fold change vs veh, ARFIP1 / RFU, FAM179B / Fold change vs veh, FAM179B / RFU, BCL10 / Fold change vs veh, BCL10 / RFU, UHRF1BP1L / Fold change vs veh, UHRF1BP1L / RFU, BET1 / Fold change vs veh, BET1 / RFU, CNOT2 / Fold change vs veh, CNOT2 / RFU, ZNF268 / Fold change vs veh, ZNF268 / Fold change vs veh, ZNF507 / RFU, DGCR2 / Fold change vs veh, DGCR2 / RFU, WDSUB1 / Fold change vs veh, WDSUB1 / Fold change vs veh, HSP90B1 /// MIR3652 / RFU, ADSS / Fold change vs veh, ADSS / RFU, GK / Fold change vs veh, GK / RFU, ZNF148 / Fold change vs veh, ZNF148 / RFU, TAF9 / Fold change vs veh, TAF9 / RFU, SLC1A5 / Fold change vs veh, SLC1A5 / RFU, SLMO2 / Fold change vs veh, SLMO2 / RFU, ABCC4 / Fold change vs veh, ABCC4 / RFU, LOC101060439 /// RAP1B / Fold change vs veh, LOC101060439 /// RAP1B / RFU, RFX7 / Fold change vs veh, RFX7 / RFU, GTPBP10 / Fold change vs veh, GTPBP10 / RFU, CNEP1R1 / Fold change vs veh, CNEP1R1 / RFU, BIVM-ERCC5 /// ERCC5 / Fold change vs veh, BIVM-ERCC5 /// ERCC5 / RFU, ILF3 / Fold change vs veh, ILF3 / RFU 11762660_at / Fold change /veh 11762660_at / RFU VCAN (11757783_s_at) / Fold change /veh VCAN (11757783_s_at) / RFU DDX43 (11728927_at) / Fold change /veh DDX43 (11728927_at) / RFU KRT8 (11758188_x_at) / Fold change /veh KRT8 (11758188_x_at) / RFU NKD1 (11759106_at) / Fold change /veh NKD1 (11759106_at) / RFU SRD5A1 (11742802_a_at) / Fold change /veh SRD5A1 (11742802_a_at) / RFU TPSAB1 /// TPSB2 (11721975_s_at) / Fold change /veh TPSAB1 /// TPSB2 (11721975_s_at) / RFU GSTM3 (11746129_a_at) / Fold change /veh GSTM3 (11746129_a_at) / RFU IL23R (11737362_x_at) / Fold change /veh IL23R (11737362_x_at) / RFU TMEM51 (11727254_a_at) / Fold change /veh TMEM51 (11727254_a_at) / RFU PIWIL2 (11732686_x_at) / Fold change /veh PIWIL2 (11732686_x_at) / RFU ORM1 (11744905_x_at) / Fold change /veh ORM1 (11744905_x_at) / RFU CCDC152 (11743942_at) / Fold change /veh CCDC152 (11743942_at) / RFU ECM1 (11717891_a_at) / Fold change /veh ECM1 (11717891_a_at) / RFU IL23R (11748794_a_at) / Fold change /veh IL23R (11748794_a_at) / RFU TNFAIP8L3 (11732012_x_at) / Fold change /veh TNFAIP8L3 (11732012_x_at) / RFU MBOAT4 (11741988_at) / Fold change /veh MBOAT4 (11741988_at) / RFU 11764193_at / Fold change /veh 11764193_at / RFU TMEM53 (11763286_at) / Fold change /veh TMEM53 (11763286_at) / RFU MAGEB2 (11727129_at) / Fold change /veh MAGEB2 (11727129_at) / RFU TMEM200A (11744735_a_at) / Fold change /veh TMEM200A (11744735_a_at) / RFU CCDC152 (11751479_a_at) / Fold change /veh CCDC152 (11751479_a_at) / RFU FAM211A (11726209_a_at) / Fold change /veh FAM211A (11726209_a_at) / RFU RGS16 (11746705_a_at) / Fold change /veh RGS16 (11746705_a_at) / RFU VCAN (11755009_s_at) / Fold change /veh VCAN (11755009_s_at) / RFU RHOB (11743442_s_at) / Fold change /veh RHOB (11743442_s_at) / RFU RGS16 (11720943_a_at) / Fold change /veh RGS16 (11720943_a_at) / RFU RGS16 (11720944_at) / Fold change /veh RGS16 (11720944_at) / RFU, VPS4B / Fold change vs veh, VPS4B / RFU, CREB1 / Fold change vs veh, CREB1 / RFU, DNAJC13 / Fold change vs veh, DNAJC13 / RFU, GNAQ / Fold change vs veh, GNAQ / RFU, CDK5R1 / Fold change vs veh, CDK5R1 / RFU, ZRANB3 / Fold change vs veh, ZRANB3 / RFU, CUL4A / Fold change vs veh, CUL4A / RFU, CCNY / Fold change vs veh, CCNY / RFU, UFL1 / Fold change vs veh, UFL1 / RFU, COG3 / Fold change vs veh, COG3 / RFU, DIAPH2 / Fold change vs veh, DIAPH2 / RFU, SKA2 / Fold change vs veh, SKA2 / RFU, AFF3 / Fold change vs veh, AFF3 / RFU, LMF1 / Fold change vs veh, LMF1 / RFU, IPO11 / Fold change vs veh, IPO11 / RFU, DFFB / Fold change vs veh, DFFB / RFU, FOXP1 / Fold change vs veh, FOXP1 / RFU, CARD8 / Fold change vs veh, CARD8 / RFU, STRN3 / Fold change vs veh, STRN3 / RFU, ADK / Fold change vs veh, ADK / RFU, RASSF2 / Fold change vs veh, RASSF2 / RFU, WIPF1 / Fold change vs veh, WIPF1 / RFU, LARP1B / Fold change vs veh, LARP1B / RFU, RASA1 / Fold change vs veh, RASA1 / RFU, RB1 / Fold change vs veh, RB1 / RFU, PPFIA1 / Fold change vs veh, PPFIA1 / RFU, MAT2A / Fold change vs veh, MAT2A / RFU, CCT5 / Fold change vs veh, CCT5 / RFU, WDR92 / Fold change vs veh, WDR92 / RFU, CUX1 / Fold change vs veh, CUX1 / RFU, TTC7A / Fold change vs veh, TTC7A / RFU, TMEM135 / Fold change vs veh, TMEM135 / RFU, DEPTOR / Fold change vs veh, DEPTOR / RFU, CPM / Fold change vs veh, CPM / RFU, DNAJB6 / Fold change vs veh, DNAJB6 / RFU, CACNA2D3 / Fold change vs veh, CACNA2D3 / RFU, DTX4 / Fold change vs veh, DTX4 / RFU, TFCP2 / Fold change vs veh, TFCP2 / RFU, GMCL1 /// GMCL1P1 / Fold change vs veh, GMCL1 /// GMCL1P1 / RFU, AEBP2 / Fold change vs veh, AEBP2 / RFU, SNHG1 /// SNORD22 /// SNORD25 /// SNORD26 /// SNORD27 /// SNORD28 /// SNORD29 /// SNORD31 / Fold change vs veh, SNHG1 /// SNORD22 /// SNORD25 /// SNORD26 /// SNORD27 /// SNORD28 /// SNORD29 /// SNORD31 / Fold change (Aza/veh), C12orf56 (ProbeSet 11735607_a_at) / Fold change (ACY-1035/veh), C12orf56 (ProbeSet 11735607_a_at) / Fold change (Aza/veh), FGFR1OP (ProbeSet 11751329_s_at) / Fold change (ACY-1035/veh), FGFR1OP (ProbeSet 11751329_s_at) / Fold change (Aza/veh), VPS36 (ProbeSet 11739960_a_at) / Fold change (ACY-1035/veh), VPS36 (ProbeSet 11739960_a_at) / RFU SYPL1 (11715823_x_at) / Fold change /veh SYPL1 (11715823_x_at) / RFU IGFBP7 (11715501_s_at) / Fold change /veh IGFBP7 (11715501_s_at) / RFU REEP3 (11722064_at) / Fold change /veh REEP3 (11722064_at) / RFU IGLL1 (11728026_x_at) / Fold change /veh IGLL1 (11728026_x_at): dose or concentration left out as unconfirmed
# Details: ProbeSet 11716865_a_at; LIST B
compound,measurement,value
Nc1ccc(-c2cccs2)cc1NC(=O)c1ccc2c(c1)cc(C1CC1)n2CCN1CCOCC1 [ACY-1035],"Fold change vs veh, SLC1A5",0.85
